Data from patent US12611387B2, “Compound and composition for inducing neuroprotection” (REST THERAPEUTICS, priority 2020, dated 2026).

Columns and labels:
[1] = system: Aβ25-35 oligomer-intoxicated mice; test: Hamlet test, symptomatic treatment; format: in vivo, C57Bl/6j mice; settings: 0.3 mg/Kg, symptomatic design
Procedure: (§1) The test compounds were tested for their ability to decrease the cognitive symptoms of Aβ25-35 oligomer-induced neurodegeneration, i.e. their ability to provide symptomatic anti-amnestic treatment (FIGS. 1A and 1B). In brief, to test the symptomatic effect of the test compounds, they were administered 8 days after the icy injection of the Aβ25-35 oligomers, 30 minutes before the YMT and PAT memory tests were conducted or 30 minutes before the test, but after the training session, in the case of the MWT or ORT (FIG. 1A). […]
The Hamlet Test® device, with a diameter of 1.2 m, comprises a central square (the agora) and streets that radiate out therefrom and lead to functionalised compartments or houses that allow a physiological function to be met or that enrich the environment. The walls and streets of the hamlet were made of infrared-transparent PVC, the test room was uniformly lit (200 Lux), infrared diodes were placed under the floor of the hamlet and an infrared camera recorded the behaviour of the animals. […]
This test was described by Crouzier et al. (2018 a and b). […] The exploratory behaviour was recorded alongside the time taken to find the Drink house and the number of errors made (number of entries into a street not leading to the Drink house). […] A disorientation index (DI) was calculated for each variable (time to find the drink house, number of errors): […]

[2] = system: Aβ25-35 oligomer-intoxicated mice; test: Object recognition test, symptomatic treatment; format: in vivo; settings: symptomatic design (not shown)
Procedure: as §1, with “1A). The Hamlet Test® (FIG. 1B) involves a 2-week training session (4 hr/day) followed by a test (max. 10 min) under water deprivation conditions and under normal conditions; the Aβ25-35 peptide is injected after this first test. After one week, the compounds are administered and a second test under water deprivation conditions and under normal conditions is performed 30 min after injection.” for “1A).”
This test is used to assess recognition memory abilities (Rodriguez Cruz et al., 2017; Maurice et al., 2019). […] The exploratory behaviour, activity and position of the animal's nose were recorded for 10 minutes (Nosetrack® software, Viewpoint, Lissieu, France). The number of contacts with the objects and the duration thereof were measured. […] The exploratory behaviour of each mouse was then also recorded for 10 minutes. […]
An exploration index was calculated using to the following formula: […]

[3] = system: Aβ25-35 oligomer-intoxicated mice; test: Morris water maze, symptomatic treatment; format: in vivo; settings: symptomatic design (not shown)
Procedure: as §1, with “1A). The Hamlet Test® (FIG. 1B) involves a 2-week training session (4 hr/day) followed by a test (max. 10 min) under water deprivation conditions and under normal conditions; the Aβ25-35 peptide is injected after this first test.” for “1A).”
This test is used to assess long-term spatial reference memory. […] The animals' swimming behaviour was recorded (Videotrack® software, Viewpoint), and the trajectories, latencies and distances covered were measured. […] Median latency (time taken to find the platform) was calculated for each training day and expressed for the group as the mean latency±standard deviation. […] Each mouse was left in the water for 60 seconds and its swimming behaviour was recorded. The time spent in the north-eastern quadrant, which originally contained the platform (T), was measured and compared to the average time spent in the other quadrants (o).

[4] = system: NMDA receptors; settings: described in WO 2014/191424; cited from earlier work

## NC12CC3CC(C1)CC(CCF)(C3)C2 [FENM, 3-(2-fluoroethyl)adamantan-1-amine]
[1]
  disorientation index calculated for errors: reduced to the level of those of the untreated, non-intoxicated mice
  disorientation index calculated for latency: reduced to the level of those of the untreated, non-intoxicated mice
[2]
  anti-amnestic effect in object recognition: confirmed
[3]
  anti-amnestic effect in Morris water maze: confirmed
[4]
  affinity for NMDA receptors: of an order of magnitude that is similar to that of memantine
